Measurements published in patent US9605002B2, “5,5-heteroaromatic anti-infective compounds” (priority 2012, dated 2017).
In brackets after ≈: the same amount, converted by molar mass.

Assays:
[1] = system: M. tuberculosis (Mtb) H37Rv; experiment: Microplate Alamar Blue Assay (MABA), GAS media, replicating Mtb; format: cell-based, Mycobacterium tuberculosis; conditions: Mycobacterium tuberculosis; GAS (glycerol-alanine-salt) media, replicating H37Rv; read-out: GAS media: replicating H37Rv Mtb: MIC 90
[2] = system: M. tuberculosis (Mtb) H37Rv; experiment: Microplate Alamar Blue Assay (MABA), 7H12 media, replicating Mtb; format: cell-based; conditions: Mycobacterium tuberculosis, 7H12 media (no glycerol), read-out: 7H12 media: Replicating H37Rv Mtb: MIC 90
[3] = system: VERO kidney epithelial cells; experiment: VERO toxicity assessment; conditions: Chlorocebus sabaeus, Vero, read-out: VERO: IC50

Row | SMILES | MIC90 [1] [µM] | MIC90 [2] [µM] | IC50 [3] [µM]
1 | Cc1nc2sc(C(F)(F)F)cn2c1C(=O)NCc1ccc(N(C)C)cc1 [ND-020024] | < 2 | 2 to 10 (≈ 0.765 to 3.82 µg/mL) | < 32
2 | Cc1cn2c(C(=O)NCc3ccc(N(C)C)cc3)c(C(F)(F)F)nc2s1 [ND-020025] | < 2 | 2 to 10 (≈ 0.765 to 3.82 µg/mL) | < 32
3 | CCc1nc2sc(C)cn2c1C(=O)NCc1ccc(N(C)C)cc1 [ND-020026] | < 2 | < 2 | < 32
4 | COc1ccc(CNC(=O)c2c(C)nc3sc(C)cn23)cc1 [ND-020027] | < 2 | < 2 | < 32
5 | CCOc1ccc(CNC(=O)c2c(C)nc3sc(C)cn23)cc1 [ND-020028] | < 2 | < 2 | < 32
6 | CCOc1cccc(CNC(=O)c2c(C)nc3sc(C)cn23)c1 [ND-020029] | < 2 | < 2 | < 32
7 | Cc1cn2c(C(=O)NCc3cccc(OC(C)C)c3)c(C)nc2s1 [ND-020030] | < 2 | < 2 | < 32
8 | Cc1cn2c(C(=O)NCc3ccc(C(C)(C)C)cc3)c(C)nc2s1 [ND-020031] | < 2 | < 2 | < 32
9 | Cc1cn2c(C(=O)NCc3cccc(N4CCOCC4)c3)c(C)nc2s1 [ND-020032] | < 2 | 2 to 10 (≈ 0.741 to 3.7 µg/mL) | < 32
10 | Cc1cn2c(C(=O)NCc3ccc(N4CCOCC4)cc3)c(C)nc2s1 [ND-020033] | < 2 | 2 to 10 (≈ 0.741 to 3.7 µg/mL) | 20 to 32
11 | Cc1cn2c(C(=O)NCc3ccc(N4CCOCC4)c(F)c3)c(C)nc2s1 [ND-020034] | < 2 | 2 to 10 (≈ 0.777 to 3.88 µg/mL) | < 32
12 | Cc1cn2c(C(=O)NCc3ccc(N4CCOCC4)c(Cl)c3)c(C)nc2s1 [ND-020035] | < 2 | < 2 | 20 to 32
13 | Cc1cn2c(C(=O)NCc3cccc(N4CCOCC4)n3)c(C)nc2s1 [ND-020036] | < 2 | 2 to 10 (≈ 0.743 to 3.71 µg/mL) | < 32
14 | CCc1nc2sc(C)cn2c1C(=O)NCc1ccc(N2CCOCC2)c(F)c1 [ND-020037] | < 2 | 2 to 10 (≈ 0.805 to 4.02 µg/mL) | < 32
15 | Cc1nc2sc(C(F)(F)F)cn2c1C(=O)NCc1ccc(N2CCOCC2)c(F)c1 [ND-020038] | 2 to 10 | 2 to 10 (≈ 0.885 to 4.42 µg/mL) | < 32
16 | Cc1nc2sc(Cl)cn2c1C(=O)NCc1ccc(N2CCOCC2)c(F)c1 [ND-020039] | < 2 | < 2 | < 32

Row | SMILES | MIC90 [1] [µM] | MIC90 [2] [µM] | IC50 [3] [µM]
17 | Cc1cn2c(C(=O)Nc3ccc(Oc4ccc(C(F)(F)F)cc4)cc3)c(C)nc2s1 [ND-020040] | < 2 | < 2 | < 32
18 | Cc1nc2sc(Cl)cn2c1C(=O)Nc1ccc(Oc2ccc(C(F)(F)F)cc2)cc1 [ND-020041] | < 2 | < 2 | < 32
19 | Cc1cn2c(C(=O)Nc3ccc(-c4ccc(C(F)(F)F)cc4)cc3)c(C)nc2s1 [ND-020042] | < 2 | 2 to 10 (≈ 0.831 to 4.15 µg/mL) | < 32
20 | CCc1nc2sc(C)cn2c1C(=O)NCc1ccc(-c2ccc(C(F)(F)F)cc2)cc1 [ND-020043] | < 2 | 2 to 10 (≈ 0.887 to 4.43 µg/mL) | < 32
21 | Cc1cn2c(C(=O)Nc3ccc(-c4ccc(C(F)(F)F)cc4)nc3)c(C)nc2s1 [ND-020044] | 2 to 10 | 2 to 10 (≈ 0.833 to 4.16 µg/mL) | < 32
22 | Cc1cn2c(C(=O)NCc3cccc(N4CCC(c5ccc(F)cc5)CC4)c3)c(C)nc2s1 [ND-020045] | < 2 | 2 to 10 (≈ 0.925 to 4.63 µg/mL) | 20 to 32
23 | CCc1nc2sc(C)cn2c1C(=O)NCc1ccc(N2CCC(c3ccc(F)cc3)CC2)cc1 [ND-020046] | < 2 | < 2 | 10 to 20
24 | Cc1cn2c(C(=O)NCc3cccc(N4CCN(c5ccc(F)cc5)CC4)c3)c(C)nc2s1 [ND-020047] | < 2 | 2 to 10 (≈ 0.927 to 4.64 µg/mL) | 20 to 32
25 | CCc1nc2sc(C)cn2c1C(=O)NCc1ccc(N2CCN(c3ccc(F)cc3)CC2)cc1 [ND-020048] | < 2 | < 2 | 10 to 20
26 | Cc1cn2c(C(=O)NCc3ccc4ocnc4c3)c(C)nc2s1 [ND-020049] | < 2 | < 2 | < 32
27 | CC1=Nn2c(nc(C)c2C(=O)NCc2ccc(Oc3ccc(F)cc3)cc2)C1 [ND-020050] | < 2 | 2 to 10 (≈ 0.757 to 3.78 µg/mL) | 20 to 32
28 | Cc1nn2c(C(=O)NCc3ccc(Oc4ccc(F)cc4)cc3)c(C)nc2o1 [ND-020051] | 2 to 10 | 2 to 10 (≈ 0.761 to 3.8 µg/mL) | 20 to 32
29 | Cc1nn2c(C(=O)NCc3ccc(Oc4ccc(F)cc4)cc3)c(C)nc2s1 [ND-020052] | < 2 | 2 to 10 (≈ 0.793 to 3.96 µg/mL) | 20 to 32
30 | CCc1nc2sc(Cl)cn2c1C(=O)NCc1ccc(Oc2ccc(Cl)cc2)cc1 [ND-020053] | < 2 | < 2 | 20 to 32
31 | CCc1nc2sc(C)cn2c1C(=O)NCc1ccc(Oc2ccc(C(F)(F)F)cc2)cc1 [ND-020054] | < 2 | < 2 | 20 to 32
32 | Cc1cn2c(C(=O)NCc3ccc(Oc4ccc(C(F)(F)F)cc4)cc3)c(C)nc2s1 [ND-020055] | < 2 | < 2 | 20 to 32
